Measured values taken from patent US10703733B2, “MCL-1 inhibitors” (Gilead Sciences, Inc., priority 2018, dated 2020).
Where two headings read alike, the source gives them in different places.

Columns and labels:
[1] = target: MCL-1/Bim interaction (recombinant human MCL-1 protein, residues 171-327; biotinylated human Bim peptide, residues 51-76) (Homo sapiens (Human), UniProt Q07820); assay: MCL-1/Bim Binding AlphaLISA Assay; settings: 0.0625 nM 6xHis-Mcl-1 (171-327), 0.0625 nM biotinylated-Bim peptide
In short: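 Protein 0.0625 nM + cpd, 1 h; add biotin-Bim 0.0625 nM, 2 h; acceptor beads 1 h; donor beads 1 h; AlphaScreen read. Buffer 20 mM Hepes pH 7.5, 150 mM NaCl, 1 mM DTT.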

SKBR3 cells = assay: SKBR3 Cell Viability Assay (CellTiter Glo); format: cell-based; settings: CellTiter Glo luminescence, read-out: MCL-1 CV SKBR3 EC50
In short: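 Viability read as CellTiter Glo luminescence after 72 h of compound exposure at 37° C./5% CO2, using 6,000 SKBR3 cells per well in McCoy 5A with 10% FBS. Percent inhibition scaled between DMSO wells and 10 μM puromycin wells.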

MCL-1/Bim interaction (recombinant human MCL-1 protein, residues 171-327; biotinylated human Bim peptide, residues 51-76), sequence (Q07820 171-327): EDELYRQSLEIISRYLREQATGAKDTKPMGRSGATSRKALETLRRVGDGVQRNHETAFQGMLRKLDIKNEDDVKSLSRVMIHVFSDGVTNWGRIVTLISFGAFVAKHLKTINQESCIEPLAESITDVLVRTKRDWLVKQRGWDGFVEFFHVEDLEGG

Row | IC50 [1] [nM] | EC50 (SKBR3 cells; Homo sapiens, SK-BR-3, 72 h) [nM] | SMILES | EC50 (SKBR3 cells; 72 hours) [nM]
1 | 0.025 | 168 | CO[C@H]1/C=C/C[C@H](C)C[S@@](=O)(NC(=O)N[C@H]2CC2(F)F)=NC(=O)c2ccc3c(c2)N(C[C@@H]2CC[C@H]21)C[C@@]1(CCCc2cc(Cl)ccc21)CO3 [Example 161] | –
2 | 0.048 | 136 | CO[C@H]1/C=C/C[C@H](C)C[S@@](=O)(NC(=O)c2coc(C)c2)=NC(=O)c2ccc3c(c2)N(C[C@@H]2CC[C@H]21)C[C@@]1(CCCc2cc(Cl)ccc21)CO3 [Example 204] | –
3 | 0.1 | 376 | CO[C@H]1/C=C/CCC[S@@](=O)(NC(=O)CCc2ncccn2)=NC(=O)c2ccc3c(c2)N(C[C@@H]2CC[C@H]21)C[C@@]1(CCCc2cc(Cl)ccc21)CO3 [Example 44] | –
4 | 0.2 | 685 | CO[C@H]1/C=C/CCC[S@@](=O)(NC(=O)CCn2cc(Cl)cn2)=NC(=O)c2ccc3c(c2)N(C[C@@H]2CC[C@H]21)C[C@@]1(CCCc2cc(Cl)ccc21)CO3 [Example 55] | –
5 | 0.114 | 167 | CO[C@H]1/C=C/C[C@H](C)C[S@@](=O)(NC(=O)C2CC3(CCOCC3)C2)=NC(=O)c2ccc3c(c2)N(C[C@@H]2CC[C@H]21)C[C@@]1(CCCc2cc(Cl)ccc21)CO3 [Example 435] | –
6 | 0.183 | 76.4 | CO[C@H]1/C=C/C[C@H](C)C[S@@](=O)(NC(=O)c2cc3n(c2)CCC3)=NC(=O)c2ccc3c(c2)N(C[C@@H]2CC[C@H]21)C[C@@]1(CCCc2cc(Cl)ccc21)CO3 [Example 136] | –
7 | 0.34 | 154 | COc1nn(C)cc1C(=O)N[S@@]1(=O)=NC(=O)c2ccc3c(c2)N(C[C@@H]2CC[C@H]2[C@@H](OC(=O)OC(C)C)/C=C/C[C@H](C)C1)C[C@@]1(CCCc2cc(Cl)ccc21)CO3 [Example 384] | –
8 | 0.147 | 146 | CO[C@H]1/C=C/C[C@H](C)C[S@@](=O)(NC(=O)c2cc3n(c2)CCN(S(C)(=O)=O)C3)=NC(=O)c2ccc3c(c2)N(C[C@@H]2CC[C@H]21)C[C@@]1(CCCc2cc(Cl)ccc21)CO3 [Example 455] | –
9 | 0.4 | 3030 | CO[C@H]1/C=C/CCC[S@@](=O)(NC(=O)NCc2ccncc2)=NC(=O)c2ccc3c(c2)N(C[C@@H]2CC[C@H]21)C[C@@]1(CCCc2cc(Cl)ccc21)CO3 [Example 79] | –
10 | 0.111 | 145 | CO[C@H]1/C=C/C[C@H](C)C[S@@](=O)(NC(=O)c2ccn(C3CC3)c2)=NC(=O)c2ccc3c(c2)N(C[C@@H]2CC[C@H]21)C[C@@]1(CCCc2cc(Cl)ccc21)CO3 [Example 156] | –
11 | 0.3 | 1060 | CO[C@H]1/C=C/CCC[S@@](=O)(NC(=O)NCc2cnccn2)=NC(=O)c2ccc3c(c2)N(C[C@@H]2CC[C@H]21)C[C@@]1(CCCc2cc(Cl)ccc21)CO3 [Example 80] | –
12 | 0.05 | 86.4 | COCCn1cc(C(=O)N[S@@]2(=O)=NC(=O)c3ccc4c(c3)N(C[C@@H]3CC[C@H]3[C@@H](OC)/C=C/C[C@H](C)C2)C[C@@]2(CCCc3cc(Cl)ccc32)CO4)cc1COC [Example 337] | –
13 | 0.046 | 104 | CO[C@H]1/C=C/C[C@H](C)C[S@@](=O)(NC(=O)c2cn(C)nc2OCC2CC2)=NC(=O)c2ccc3c(c2)N(C[C@@H]2CC[C@H]21)C[C@@]1(CCCc2cc(Cl)ccc21)CO3 [Example 221] | –
14 | 0.052 | 139 | CO[C@H]1/C=C/C[C@H](C)C[S@@](=O)(NC(=O)N[C@H]2C[C@H](OC(=O)N(C)C)C2)=NC(=O)c2ccc3c(c2)N(C[C@@H]2CC[C@H]21)C[C@@]1(CCCc2cc(Cl)ccc21)CO3 [Example 360] | –
15 | 0.8 | 4070 | CO[C@H]1/C=C/CCC[S@@](=O)(NC(=O)OCc2ccnn2C)=NC(=O)c2ccc3c(c2)N(C[C@@H]2CC[C@H]21)C[C@@]1(CCCc2cc(Cl)ccc21)CO3 [Example 78] | –
16 | 0.041 | 61.7 | CO[C@H]1/C=C/C[C@H](C)C[S@@](=O)(NC(=O)N2CCN(CC#N)CC2)=NC(=O)c2ccc3c(c2)N(C[C@@H]2CC[C@H]21)C[C@@]1(CCCc2cc(Cl)ccc21)CO3 [Example 270] | –
17 | 1.1 | 1100 | CO[C@H]1/C=C/CCC[S@@](=O)(NC(=O)CCCC(F)(F)F)=NC(=O)c2ccc3c(c2)N(C[C@@H]2CC[C@H]21)C[C@@]1(CCCc2cc(Cl)ccc21)CO3 [Example 95] | –
18 | 46.9 | 6300 | CCC(=O)N[S@@]1(=O)=NC(=O)c2ccc3c(c2)N(C[C@@H]2CC[C@H]2[C@@H](OCCN2CCN(C)CC2)/C=C/CCC1)C[C@@]1(CCCc2cc(Cl)ccc21)CO3 [Example 68] | –

Further lines, the compound ahead of its results:

Row | SMILES | IC50 [1] [nM] | EC50 (SKBR3 cells; Homo sapiens, SK-BR-3, 72 h) [nM] | EC50 (SKBR3 cells; 72 hours) [nM]
19 | CO[C@H]1/C=C/C[C@H](C)C[S@@](=O)(NC(=O)c2cc3n(c2)C[C@@H](C)OC3)=NC(=O)c2ccc3c(c2)N(C[C@@H]2CC[C@H]21)C[C@@]1(CCCc2cc(Cl)ccc21)CO3 [Example 168] | 0.222 | 74.2 | –
20 | CO[C@H]1/C=C/CCC[S@@](=O)(NC(=O)C2CC2)=NC(=O)c2ccc3c(c2)N(C[C@@H]2CC[C@H]21)C[C@@]1(CCCc2cc(Cl)ccc21)CO3 [Example 27] | 1.6 | 2080 | –
21 | CO[C@H]1/C=C/C[C@H](C)[C@@H](C)[S@@](=O)(NC(=O)c2cc3n(c2)C[C@H](C)OC3)=NC(=O)c2ccc3c(c2)N(C[C@@H]2CC[C@H]21)C[C@@]1(CCCc2cc(Cl)ccc21)CO3 [Example 218] | 0.345 | 85.5 | –
22 | CO[C@H]1/C=C/C[C@H](C)C[S@@](=O)(NC(=O)N[C@H]2C[C@@](C)(O)C2)=NC(=O)c2ccc3c(c2)N(C[C@@H]2CC[C@H]21)C[C@@]1(CCCc2cc(Cl)ccc21)CO3 [Example 186] | 0.066 | 168 | –
23 | CO[C@H]1/C=C/CCC[S@@](=O)(NC(=O)NC(C)(C)C(F)(F)F)=NC(=O)c2ccc3c(c2)N(C[C@@H]2CC[C@H]21)C[C@@]1(CCCc2cc(Cl)ccc21)CO3 [Example 34] | 2 | 3350 | –
24 | CO[C@H]1/C=C/CCC[S@@](=O)(NC(=O)CCS(C)(=O)=O)=NC(=O)c2ccc3c(c2)N(C[C@@H]2CC[C@H]21)C[C@@]1(CCCc2cc(Cl)ccc21)CO3 [Example 28] | 0.2 | 8410 | –
25 | CO[C@H]1/C=C/C[C@H](C)C[S@@](=O)(NC(=O)c2cc3n(c2)CCN(C(C)=O)C3)=NC(=O)c2ccc3c(c2)N(C[C@@H]2CC[C@H]21)C[C@@]1(CCCc2cc(Cl)ccc21)CO3 [Example 180] | 0.092 | 134 | –
26 | CCCn1cc(C(=O)N[S@@]2(=O)=NC(=O)c3ccc4c(c3)N(C[C@@H]3CC[C@H]3[C@@H](OC)/C=C/C[C@H](C)C2)C[C@@]2(CCCc3cc(Cl)ccc32)CO4)cn1 [Example 420] | 0.237 | 124 | –
27 | COC[C@H]1Cn2cc(C(=O)N[S@@]3(=O)=NC(=O)c4ccc5c(c4)N(C[C@@H]4CC[C@H]4[C@@H](OC)/C=C/C[C@H](C)C3)C[C@@]3(CCCc4cc(Cl)ccc43)CO5)cc2CO1 [Example 214] | 0.185 | 55.9 | –
28 | COC[C@H]1C[C@@H]1NC(=O)N[S@@]1(=O)=NC(=O)c2ccc3c(c2)N(C[C@@H]2CC[C@H]2[C@@H](OC)/C=C/C[C@H](C)C1)C[C@@]1(CCCc2cc(Cl)ccc21)CO3 [Example 303] | 0.045 | 22.8 | –
29 | CO[C@H]1/C=C/CCC[S@](=O)(NC(=O)[C@@H]2C[C@H]2c2ccnn2C)=NC(=O)c2ccc3c(c2)N(C[C@@H]2CC[C@H]21)C[C@@]1(CCCc2cc(Cl)ccc21)CO3 [Example 84] | 0.1 | – | 783
30 | CO[C@H]1/C=C/CCC[S@](N)(=O)=NC(=O)c2ccc3c(c2)N(C[C@@H]2CC[C@H]21)C[C@@]1(CCCc2cc(Cl)ccc21)CO3 [Example 6] | 27.3 | – | 8730
31 | CO[C@H]1/C=C/C[C@H](C)C[S@@](=O)(NC(=O)c2cc(CN3CCN(C(C)C)[C@H](C)C3)n(C)c2)=NC(=O)c2ccc3c(c2)N(C[C@@H]2CC[C@H]21)C[C@@]1(CCCc2cc(Cl)ccc21)CO3 [Example 284] | 0.061 | 54.7 | –
32 | CO[C@H]1/C=C/C[C@H](C)C[S@@](=O)(NC(=O)c2cc3n(c2)CC=C3)=NC(=O)c2ccc3c(c2)N(C[C@@H]2CC[C@H]21)C[C@@]1(CCCc2cc(Cl)ccc21)CO3 [Example 135] | 0.213 | 132 | –
33 | CO[C@H]1/C=C/C[C@H](C)C[S@@](=O)(NC(=O)c2cc3n(c2F)CCCC3)=NC(=O)c2ccc3c(c2)N(C[C@@H]2CC[C@H]21)C[C@@]1(CCCc2cc(Cl)ccc21)CO3 [Example 174] | 0.153 | – | 103
34 | CO[C@H]1/C=C/CCC[S@@](=O)(NC(=O)Cc2cn3ccccc3n2)=NC(=O)c2ccc3c(c2)N(C[C@@H]2CC[C@H]21)C[C@@]1(CCCc2cc(Cl)ccc21)CO3 [Example 86] | 1.8 | 4910 | –
35 | CO[C@H]1/C=C/C[C@H](C)C[S@@](=O)(NC(=O)c2cnn(C(F)F)c2)=NC(=O)c2ccc3c(c2)N(C[C@@H]2CC[C@H]21)C[C@@]1(CCCc2cc(Cl)ccc21)CO3 [Example 119] | 0.145 | 93.8 | –
36 | CCO[C@]1(C)C[C@H](NC(=O)N[S@@]2(=O)=NC(=O)c3ccc4c(c3)N(C[C@@H]3CC[C@H]3[C@@H](OC)/C=C/C[C@H](C)C2)C[C@@]2(CCCc3cc(Cl)ccc32)CO4)C1 [Example 225] | 0.043 | 51.3 | –
37 | COC1CN(C2CN(C(=O)N[S@@]3(=O)=NC(=O)c4ccc5c(c4)N(C[C@@H]4CC[C@H]4[C@@H](OC)/C=C/C[C@H](C)C3)C[C@@]3(CCCc4cc(Cl)ccc43)CO5)C2)C1 [Example 286] | 0.037 | 65.1 | –
